Test results from US20110189347A1 (priority 2008, published 2011).
Like-named read-outs stand apart in the source and are kept apart here.

Assays:
[1] = Growth performance of broiler chickens, floor pen trial over five weeks (Example 6); type: in vivo; conditions: for numerical improvement of weight gain compared to the control: day 1 to day 36
Text: The objective of the present trial (Trial A) was to evaluate the effects of sucinic acid on the growth performance of broiler chickens in a floor pen trial over five weeks. Succinic acid was supplemented at four different dose levels. […] Each group was placed in one floor pen littered with wood shavings and allocated to one of the different treatments. Each treatment was replicated with 4 groups per sex. Birds had ad libitum access to feed and tap water. […] Chickens received diets based on soybean meal, and wheat as main ingredients (Table 6). […] The target quantities of succinic acid were added on top to the feed, mixed with appropriate amounts of maize starch as a carrier: […] For the statistical evaluation of the data, a one-factorial analysis of variance for each diet (factor: treatment) was carried out. Where significant treatment effects (p<0.05) were indicated, the differences among treatment means were subsequently analyzed with the Newman-Keuls test.

[2] = test system: commensal Escherichia coli; assay: microbe, parasite or virus in culture
[3] = test system: Salmonella enterica subsp enterica serovar Enteritidis; assay: microbe, parasite or virus in culture
Clostridium perfringens = assay: microbe, parasite or virus in culture; type: cell-based
[4] = test system: Salmonella enterica subsp enterica serovar Typhimurium; assay: microbe, parasite or virus in culture
Enterococcus faecalis = assay: microbe, parasite or virus in culture
[5] = for Daily feed intake / Live weight of piglets: dietary inclusion 1.0%
[6] = 0.5% in diet, 29 days

COC[C@H]1O[C@@H](OC2OC[C@@H]3O[C@]4(O[C@H]3[C@H]2OC(=O)C(C)C)O[C@H](C)[C@@](O)(C(C)=O)[C@@H]2OCO[C@H]24)[C@@H](OC)[C@@H](O)[C@@H]1O[C@@H]1O[C@H](C)[C@H](OC)[C@H](O[C@H]2C[C@@]3(C)OC4(C[C@@H](O)[C@H](O[C@H]5C[C@@H](O)[C@H](OC(=O)c6c(C)c(Cl)c(O)c(Cl)c6OC)[C@@H](C)O5)[C@@H](C)O4)O[C@@H]3[C@@H](C)O2)[C@H]1O (stereo partly drawn) [Avilamycin, reference compound]
Feed conversion ([1]; Day 1-22, 10 mg/kg feed): 1.462^A g feed/g gain
Feed conversion, relative to control (100) ([1]; Day 1-22, 10 mg/kg feed): 101.0
Feed intake ([1]; Day 1-22, 10 mg/kg feed): 1450^A g
Weight gain ([1]; Day 1-22, 10 mg/kg feed): 992^BC g
Weight gain, relative to control (100) ([1]; Day 1-22, 10 mg/kg feed): 104.1
Feed conversion ([1]; Day 1-36, 10 mg/kg feed): 1.638^A g feed/g gain
Feed conversion, relative to control (100) ([1]; Day 1-36, 10 mg/kg feed): 100.9
Feed intake ([1]; Day 1-36, 10 mg/kg feed): 3860^A g
Weight gain ([1]; Day 1-36, 10 mg/kg feed): 2359^A g
Weight gain, relative to control (100) ([1]; Day 1-36, 10 mg/kg feed): 102.5
Feed conversion ([1]; Day 22-36, 10 mg/kg feed): 1.769^A g feed/g gain
Feed conversion, relative to control (100) ([1]; Day 22-36, 10 mg/kg feed): 101.1
Feed intake ([1]; Day 22-36, 10 mg/kg feed): 2412^A g
Weight gain ([1]; Day 22-36, 10 mg/kg feed): 1366^A g
Weight gain, relative to control (100) ([1]; Day 22-36, 10 mg/kg feed): 101.4

O=C(O)CC(O)(CC(=O)O)C(=O)O [citric acid, reference compound]
MIC90 [2]: < 31.2 mM
MIC90 [3]: < 31.2 mM
MIC90 (Clostridium perfringens): < 31.2 mM
MIC90 [4]: < 31.2 mM
MIC90 (Enterococcus faecalis): < 31.2 mM

O=C(O)CCC(=O)O [Succinic acid, succinic acid]
MIC90 [2]: < 31.2 mM
MIC90 [3]: < 31.2 mM
Feed conversion ([1]; Day 1-22, 2.5 g/kg feed): 1.365^B g feed/g gain
Feed intake ([1]; Day 1-22, 2.5 g/kg feed): 1427^A g
Weight gain ([1]; Day 1-22, 2.5 g/kg feed): 1046^A g
Feed conversion ([1]; Day 1-22, 5 g/kg feed): 1.461^A g feed/g gain
Feed intake ([1]; Day 1-22, 5 g/kg feed): 1446^A g
Weight gain ([1]; Day 1-22, 5 g/kg feed): 991^BC g
Feed conversion ([1]; Day 1-22, 7.5 g/kg feed): 1.372^B g feed/g gain
Feed intake ([1]; Day 1-22, 7.5 g/kg feed): 1445^A g
Weight gain ([1]; Day 1-22, 7.5 g/kg feed): 1054^A g
Feed conversion ([1]; Day 1-22, 10 g/kg feed): 1.381^B g feed/g gain
Feed intake ([1]; Day 1-22, 10 g/kg feed): 1430^A g
Weight gain ([1]; Day 1-22, 10 g/kg feed): 1036^AB g
Feed conversion ([1]; Day 1-36, 2.5 g/kg feed): 1.602^A g feed/g gain
Feed intake ([1]; Day 1-36, 2.5 g/kg feed): 3817^A g
Weight gain ([1]; Day 1-36, 2.5 g/kg feed): 2383^A g
Feed conversion ([1]; Day 1-36, 5 g/kg feed): 1.642^A g feed/g gain
Feed intake ([1]; Day 1-36, 5 g/kg feed): 3793^A g
Weight gain ([1]; Day 1-36, 5 g/kg feed): 2311^A g
Feed conversion ([1]; Day 1-36, 7.5 g/kg feed): 1.612^A g feed/g gain
Feed intake ([1]; Day 1-36, 7.5 g/kg feed): 3870^A g
Weight gain ([1]; Day 1-36, 7.5 g/kg feed): 2404^A g
Feed conversion ([1]; Day 1-36, 10 g/kg feed): 1.651^A g feed/g gain
Feed intake ([1]; Day 1-36, 10 g/kg feed): 3868^A g
Weight gain ([1]; Day 1-36, 10 g/kg feed): 2347^A g
Feed conversion ([1]; Day 22-36, 2.5 g/kg feed): 1.790^A g feed/g gain
Feed intake ([1]; Day 22-36, 2.5 g/kg feed): 2392^A g
Weight gain ([1]; Day 22-36, 2.5 g/kg feed): 1337^A g
Feed conversion ([1]; Day 22-36, 5 g/kg feed): 1.786^A g feed/g gain
Feed intake ([1]; Day 22-36, 5 g/kg feed): 2347^A g
Weight gain ([1]; Day 22-36, 5 g/kg feed): 1320^A g
Feed conversion ([1]; Day 22-36, 7.5 g/kg feed): 1.806^A g feed/g gain
Feed intake ([1]; Day 22-36, 7.5 g/kg feed): 2431^A g
Weight gain ([1]; Day 22-36, 7.5 g/kg feed): 1350^A g
Feed conversion ([1]; Day 22-36, 10 g/kg feed): 1.870^A g feed/g gain
Feed intake ([1]; Day 22-36, 10 g/kg feed): 2442^A g
Weight gain ([1]; Day 22-36, 10 g/kg feed): 1311^A g
numerical improvement of weight gain compared to the control ([1]; 2.5 g per kg feed): 3.6%
numerical improvement of weight gain compared to the control ([1]; 7.5 g per kg feed): 4.5%
improvement of weight gain compared to the control ([1]; starter period (day 1-22), across the different inclusion levels): 3.9% to 10.5
Daily feed intake ([5]; Day 0-14): 368 g
Daily feed intake ([5]; Day 14-24): 649 g
Live weight of piglets ([5]; Day 14): 12.01 kg
Daily feed intake ([5]; Day 24-36): 869 g
Live weight of piglets ([5]; Day 24): 16.90 kg
Live weight of piglets ([5]; Final, day 36): 24.32 kg
Live weight of piglets ([5]; Initial, day 0): 8.51 kg
Daily feed intake ([5]; Overall, day 0-36): 613 g
reduction of feed intake versus control ([5]; day 0-14, dietary level of 1.0%): −25.4%
MIC90 (Clostridium perfringens): < 31.2 mM
MIC90 [4]: < 31.2 mM
DWG numerically higher than control group [6]: 5%
Weight gain ([6]; group B, n = 24): 6.57 ± 1.91 kg
MIC90 (Enterococcus faecalis): < 31.2 mM
